This is an account of results in patent publication US20090233960A1, “Kinase Inhibitors” (Devgen NV, priority 2005, published 2009).

“Also recorded” adds a separate entry of the source.

Broadly, the IC50 is the point on the concentration scale where inhibition reaches its midpoint.

In one experiment the target is T1, human ROCKI/ROCKII mix (Homo sapiens, UniProt O75116).
T1 construct: purchased Upstate Biotechnology 14451
T1 sequence (O75116 11-552 limits assumed): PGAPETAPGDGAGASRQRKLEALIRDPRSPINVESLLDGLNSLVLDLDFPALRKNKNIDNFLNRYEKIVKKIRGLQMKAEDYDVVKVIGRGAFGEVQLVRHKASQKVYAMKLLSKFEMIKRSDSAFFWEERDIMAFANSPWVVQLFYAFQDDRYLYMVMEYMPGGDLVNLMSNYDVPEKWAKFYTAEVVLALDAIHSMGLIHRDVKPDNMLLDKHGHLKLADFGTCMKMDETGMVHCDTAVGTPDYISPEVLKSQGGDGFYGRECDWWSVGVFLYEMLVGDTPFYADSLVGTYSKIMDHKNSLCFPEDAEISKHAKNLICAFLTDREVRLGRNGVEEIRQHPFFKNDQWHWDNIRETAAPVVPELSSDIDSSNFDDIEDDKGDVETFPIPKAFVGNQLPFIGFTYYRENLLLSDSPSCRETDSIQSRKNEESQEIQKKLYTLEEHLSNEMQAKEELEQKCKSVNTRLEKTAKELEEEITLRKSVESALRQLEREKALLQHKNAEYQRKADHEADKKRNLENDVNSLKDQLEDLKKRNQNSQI
In words: ROCK inhibition, fluorescence polarization (FP) IMAP assay. The note with it: 10 μM ATP. Format: biochemical. The procedure:
The compounds of the invention were tested for inhibition of human ROCKI/ROCKII mix.
The inhibition assays were performed with a fluorescence polarization (FP) assay using the commercially available ROCK IMAP Kit from Molecular Devices (Product ID. No. R8093) essentially in accordance with the protocol supplied by the manufacturer. The S6 ribosomal protein-derived substrate used was (Fl)-[…], also obtained from Molecular Devices (Product ID No. R7184). The enzyme mix ROCKI/ROCKII was obtained from Upstate Biotechnology (Product ID No 14451).
In summary, all compounds were screened in the wells of a 384 well plate for enzymatic inhibition with concentrations varying from 100 μM to 0.3 nM using a stepwise three (or two)-fold dilution.
To perform the assay, 1 μl of a solution of the compound to be tested in DMSO (at each concentration) was added to 2 μl of a solution of the enzyme in 10 mM Tris-HCl, 10 mM MgCl2, 0.1% BSA, 0.05% NaN3, pH 7,2. The final concentration of the enzyme was 2.6 nM.
After incubating for 30 minutes at room temperature, 2 μl of a mixture of ATP and the protein substrate in 10 mM Tris-HCl, 10 mM MgCl2, 0.1% BSA, 0.05% NaN3, pH 7.2 was added. The final concentration of the ATP was 10 μM and final concentration of protein substrate was 0.2 μM.
After incubating for 60 minutes at room temperature, 12 μl of the IMAP Binding Solution (mix of the IMAP Binding Buffer A (1×) and the IMAP Binding Reagent (from the ROCK IMAP kit)) was added.
The mixture thus obtained (total volume: 17 μl) was incubated for 60 minutes at room temperature, upon which the fluorescence polarization was measured using an automated plate reader (Perkin Elmer, Model Envision 2100-0010 HTS) with FP filters: excitation filter FITC FP 480 and emission filters FITC FP P-pol 535 and FITC FP S-pol 535 (Perkin-Elmer). The results were fitted to a curve using the XL-Fit algorithm and IC50 values were calculated for each fitted curve, again using the XL-Fit algorithm.
For orientation: Polarisation of emitted light reports the rotation of a fluorescent probe.
`CC(N)c1ccc(C(=O)Nc2ccncc2)cc1O` (stereo not drawn) [Compound 1, 4-(1-amino-ethyl)-3-hydroxy-N-pyridin-4-yl-benzamide] registered an IC50 of 500 to 5000 nM. The same measure, in the same setting: as for `CC(N)c1ccc(C(=O)Nc2ccncc2)cc1[N+](=O)[O-]` (stereo not drawn) [Compound 2, 4-(1-amino-ethyl)-3-nitro-N-pyridin-4-yl-benzamide], the figure is 50 to 500 nM; as for `CC(N)c1ccc(C(=O)Nc2ccncc2)cc1N` (stereo not drawn) [Compound 3, 3-amino-4-(1-amino-ethyl)-N-pyridin-4-yl-benzamide], 500 to 5000 nM; as for `CC(N)c1ccc(C(=O)Nc2ccncc2)cc1-c1ccc(Cl)cc1` (stereo not drawn) [Compound 4, 6-(1-amino-ethyl)-4′-chloro-biphenyl-3-carboxylic acid pyridin-4-ylamide], less than 50 nM.

Compound `CC(N)c1ccc(C(=O)Nc2ccncc2)cc1-c1cccs1` (stereo not drawn) [Compound 5, 4-(1-amino-ethyl)-N-pyridin-4-yl-3-thiophen-2-yl-benzamide] came in with an IC50 of less than 50 nM. Turning to `COc1ccc(-c2cc(C(=O)Nc3ccncc3)ccc2C(C)N)cc1` (stereo not drawn) [Compound 6, 6-(1-amino-ethyl)-4′-methoxy-biphenyl-3-carboxylic acid pyridin-4-ylamide], the IC50 lay within 50 to 500 nM. Compound `CC(N)c1ccc(C(=O)Nc2ccncc2)cc1-c1ccoc1` (stereo not drawn) [Compound 7, 4-(1-amino-ethyl)-3-furan-3-yl-N-pyridin-4-yl-benzamide] came in with an IC50 of 50 to 500 nM. On to `CC(N)c1ccc(C(=O)Nc2ccncc2)cc1OCCO` (stereo not drawn) [Compound 8, 4-(1-amino-ethyl)-3-(2-hydroxy-ethoxy)-N-pyridin-4-yl-benzamide], for which the IC50 lay in the range of 500 to 5000 nM.

On to `CC(N)c1ccc(C(=O)Nc2ccncc2)cc1OCCCO` (stereo not drawn) [Compound 9, 4-(1-amino-ethyl)-3-(3-hydroxy-propoxy)-N-pyridin-4-yl-benzamide], for which the IC50 was in the range of 500 to 5000 nM. In turn, `CC(N)c1ccc(C(=O)Nc2ccncc2)cc1OCCN` (stereo not drawn) [Compound 10, 3-(2-amino-ethoxy)-4-(1-amino-ethyl)-N-pyridin-4-yl-benzamide] yielded an IC50 of 500 to 5000 nM. On to `CC(N)c1ccc(C(=O)Nc2ccncc2)cc1OCCCN` (stereo not drawn) [Compound 11, 4-(1-amino-ethyl)-3-(3-amino-propoxy)-N-pyridin-4-yl-benzamide], for which the IC50 lay in the range of 500 to 5000 nM.

Turning to `CC(N)c1ccc(C(=O)Nc2ccncc2)cc1OCc1ccccc1` (stereo not drawn) [Compound 12, 4-(1-amino-ethyl)-3-benzyloxy-N-pyridin-4-yl-benzamide], the half-maximal inhibitory concentration (IC50) lay within 50 to 500 nM. On to `CC(N)c1ccc(C(=O)Nc2ccncc2)cc1NC(=S)Nc1ccccc1` (stereo not drawn) [Compound 13, 4-(1-amino-ethyl)-3-(3-phenyl-thioureido)-N-pyridin-4-yl-benzamide], for which the IC50 lay in the range of 50 to 500 nM. In turn, `CC(N)c1ccc(C(=O)Nc2ccncc2)cc1NC(=O)Nc1ccccc1` (stereo not drawn) [Compound 14, 4-(1-amino-ethyl)-3-(3-phenyl-ureido)-N-pyridin-4-yl-benzamide] displayed an IC50 of 50 to 500 nM. `CC(N)c1ccc(C(=O)Nc2ccncc2)cc1NCc1ccco1` (stereo not drawn) [Compound 16, 4-(1-amino-ethyl)-3-[(furan-2-ylmethyl)-amino]-N-pyridin-4-yl-benzamide]: the IC50 was in the range of 50 to 500 nM.

Compound `CC(N)c1ccc(C(=O)Nc2ccncc2)cc1NC(=O)c1ccccc1` (stereo not drawn) [Compound 17, 4-(1-amino-ethyl)-3-benzoylamino-N-pyridin-4-yl-benzamide] displayed an IC50 of 50 to 500 nM. Consider `CC(N)c1ccc(C(=O)Nc2ccncc2)cc1NC(=O)c1ccco1` (stereo not drawn) [Compound 18, furan-2-carboxylic acid [2-(1-amino-ethyl)-5-(pyridin-4-ylcarbamoyl)-phenyl]-amide], for which the IC50 fell in the range of 50 to 500 nM.

In turn, `COc1cccc(C(=O)Nc2cc(C(=O)Nc3ccncc3)ccc2C(C)N)c1` (stereo not drawn) [Compound 19, 4-(1-amino-ethyl)-3-(3-methoxy-benzoylamino)-N-pyridin-4-yl-benzamide] had an IC50 of less than 50 nM.

As to `CC(N)c1ccc(C(=O)Nc2ccncc2)cc1NC(=O)c1cccc(Cl)c1` (stereo not drawn) [Compound 20], the IC50 was in the range of 50 to 500 nM. Turning to `COc1ccc(C(=O)Nc2cc(C(=O)Nc3ccncc3)ccc2C(C)N)cc1` (stereo not drawn) [Compound 21, 4-(1-Amino-ethyl)-3-(4-methoxy-benzoylamino)-N-pyridin-4-yl-benzamide], the IC50 is less than 50 nM. Take `CC(N)c1ccc(C(=O)Nc2ccncc2)cc1NC(=O)c1ccc(Cl)cc1` (stereo not drawn) [Compound 22, 4-(1-Amino-ethyl)-3-(4-chloro-benzoylamino)-N-pyridin-4-yl-benzamide]: the IC50 is 50 to 500 nM. As for `CC(N)c1ccc(C(=O)Nc2ccncc2)cc1-c1cccc(Cl)c1` (stereo not drawn) [Compound 24, 6-(1-aminoethyl)-3′-chloro-N-pyridin-4-ylbiphenyl-3-carboxamide], the IC50 is less than 50 nM.

Regarding `CC(N)c1ccc(C(=O)Nc2ccncc2)cc1-c1ccc(F)cc1` (stereo not drawn) [Compound 26, 6-(1-aminoethyl)-4′-fluoro-N-pyridin-4-ylbiphenyl-3-carboxamide], the IC50 was less than 50 nM.

For `CC(N)c1ccc(C(=O)Nc2ccncc2)cc1-c1ccc2ccccc2c1` (stereo not drawn) [Compound 32, 4-(1-aminoethyl)-3-(2-naphthyl)-N-pyridin-4-ylbenzamide], the IC50 is less than 50 nM. For `C[C@@H](N)c1ccc(C(=O)Nc2ccncc2)cc1-c1cccs1` [Compound 103, 4-((R)-1-Amino-ethyl)-N-pyridin-4-yl-3-thiophen-2-yl-benzamide], the IC50 was less than 50 nM.

Turning to `C[C@H](N)c1ccc(C(=O)Nc2ccncc2)cc1-c1cccs1` [Compound 104, 4-((S)-1-Amino-ethyl)-N-pyridin-4-yl-3-thiophen-2-yl-benzamide], the IC50 is 50 to 500 nM.

In the next experiment the test system is spontaneous hypertensive rats (SHRs). In words: Activity on hypertension in spontaneous hypertensive rats (SAP and heart rate). Type of experiment: in vivo, rat. The conditions noted are these: SHR, 10 mg/kg, single oral dose. The procedure:
The efficiency of compounds of the invention to reduce and/or treat hypertension in an acute model was evaluated using spontaneous hypertensive rats (SHRs).
Compounds were administered as one single dose to SHR. Systolic arterial pressure (SAP) and heart rate were recorded before (−1 hr) and 1, 3, 5, 7, and 24 hours after oral administration of vehicle or test compound.
A reduction in SAP by 10 percent or more (>10%), or a decrease in heart rate by 20 percent or more (>20%), relative to baseline was considered significant.
As to `C[C@@H](N)[C@H]1CC[C@H](C(=O)Nc2ccncc2)CC1` [Compound Y-27632], the “hypotensive response (systolic arterial pressure)” value is “not significant; also recorded: completely inactive”.
